# Assay results as given in patent US5977150A, “Amino acid derivatives of diaryl 1,3,4-oxadiazolone” (Bristol-Myers Squibb Company, priority 1999, dated 1999).
# Legend:
# [1] = system: cloned mammalian (mSlo or hSlo) BK; assay: Two-electrode voltage clamp of cloned BK-mediated outward current expressed in Xenopus oocytes; assay type: cell-based; conditions: 1 μM; at least 5 oocytes; IBTX 50 nM used to isolate BK current
# Protocol: (§1) The ability of the compound of Example 1 to open BK channels and increase whole-cell outward (K^+) BK-mediated currents was assessed under voltage-clamp conditions by determining their ability to increase cloned mammalian (mSlo or hSlo) BK-mediated outward current heterologously expressed in Xenopus oocytes [Butler, A., et al., Science, 261, pp. 221-224 (1993); and Dworetzky, S. I., et al., Mol. Brain Res., 27, pp.189-193 (1994)]. The two BK constructs employed represent nearly structurally identical homologous proteins, and have proven to be pharmacologically identical in our tests. To isolate BK current from native (background, non-BK) current, the specific and potent BK channel-blocking toxin iberiotoxin (IBTX) [Galvez, A., et al., J. Biol. Chem, 265, pp. 11083-11090 (1990)] was employed at a supramaximal concentration (50 nM). The relative contribution of BK channels current to total outward current was determined by subtraction of the current remaining in the presence of IBTX (non-BK current) from the current profiles obtained in all other experimental conditions (control, drug, and wash). […]
# cortical infarct volume = assay: Focal stroke model: permanent MCA and CCA occlusion with temporary right CCA occlusion; assay type: in vivo; conditions: 10 μg/kg i.v. single bolus two hours after MCA occlusion; infarct measured 24 hours after MCAO; Wistar rat
# Protocol: To determine the ability of the compounds of the present invention to reduce cell loss resulting from neuronal ischemia, a standard focal cerebral ischemia is induced by permanent occlusion of the left middle cerebral artery (MCA) and common carotid artery (CCA) with one hour occlusion of the right CCA in the Wistar rat. The surgeries are performed using the sub-temporal approach of A. Tamura, et al., J. Cereb. Blood Flow Metab., 1, pp. 53-60, (1981) and its modifications [K. Osborne, et al., J. Neurol Neurosurg. Psychiatry, 50, pp. 402-410 (1987) and S. Menzies, et al., Neurosurgery, 31, pp. 100-107, (1992).]
# The compound of Example 1 was evaluated in the focal stroke model involving permanent occlusion of the left MCA (MCAO) and CCA (CCAO) and temporary occlusion of the right CCA in the Wistar rat. This procedure results in a reliably large neocortical infarct volume that is measured by means of vital dye exclusion in serial slices through the brain 24 hours after MCAO. In the present test, compounds were administered using an i.v. or i.p. route of administration two hours after occlusion.
# [2] = system: non-BK native currents in the oocytes; assay: Effect on non-BK (IBTX-insensitive) native currents in Xenopus oocytes under voltage clamp; assay type: cell-based; conditions: at the tested concentration (1 μM)
# Protocol: as §1
# [3] = Rapid screen of prodrug hydrolysis and release of the drug in plasma; assay type: in vitro ADME; conditions: fresh rat plasma, 37° C., 10 μg/mL from a 1 mg/mL PEG-400 stock, analysis 5 minutes after incubation, HPLC
# Protocol: A rapid screen to determine the ability of prodrugs to hydrolyze and release the drug (compound of Example 1) is conducted as follows. A 1 mg/mL stock solution of the prodrug is prepared in distilled water or acetonitrile or PEG-400. Plasma from freshly collected rat or human blood is used in this assay. To 1 mL of plasma at 37° C. was added 10 μL of stock solution of prodrug and mixed gently. Immediately after the mixing, 100 μL of plasma was removed and quenched with 300 μL of acetontrile (Zero time sample). Samples were also obtained at 30 minutes and quenched immediately. The quenched samples were centrifuged to obtain a clear supernatant for analysis. The stock solution, T=0 and T=30 samples were analyzed by a HPLC assay that separates the drug from the prodrug. Based on the relative peak areas of prodrug and drug in these samples, different prodrugs are characterized as fast, moderate and slow release agents. For example, in this model, the compound of Example 9 was dissolved in PEG-400 at a concentration of 1 mg/mL and incubated at 10 μg/mL in fresh rat plasma at 37° C.
Compound,"BK current, % of control of IBTX-sensitive current [1]",reduction of cortical infarct volume vs vehicle-treated (water) control (cortical infarct volume),effect on non-BK native currents in the oocytes [2],conversion of prodrug to drug (compound of Example 1) in plasma [3]
"O=c1oc(-c2ccc(C(F)(F)F)cc2)nn1Cc1cc(Cl)ccc1O [Example 1, 3-[(5-Chloro-2-hydroxyphenyl)methyl]-5-[4-(trifluoromethyl)phenyl]-1,3,4-oxadiazol-2(3H)-one]",126 % of control,about 18%,did not effect non-BK native currents,
"CN[C@@H](CC(C)C)C(=O)Oc1ccc(Cl)cc1Cn1nc(-c2ccc(C(F)(F)F)cc2)oc1=O [Example 9, 3-[(5-Chloro-2-hydroxyphenyl)methyl]-5-[4-(trifluoromethyl)phenyl]-1,3,4-oxadiazol-2(3H)-one, N-Methyl (L)-Leucine ester]",,,,conversion of the compound of Example 9 to the compound of Example 1
